Assay results taken from ChEMBL document CHEMBL1121820, “Synthesis and antitumor activity of simple vinyl and alpha-methylene-gamma-butyrolactone sulfonate esters and silyl enol ethers” (1981).

Key:
[1] = tested on: P388; assay: Compound was studied in P388 test system for the antitumor activity expressed as percent maximum life span of animals at a dose of 400 mg/kg; format: functional; details: Mus musculus
[2] = tested on: P388; assay: Compound was studied in P388 test system for the antitumor activity expressed as number of animals survived/Number of animals tested at a dose of 400 mg/kg; 5/5; format: functional, Mus musculus
[3] = tested on: L1210; assay: Compound was studied in L1210 leukemia test system for the antitumor activity expressed as percent maximum life span of animals at dose of 25 mg/kg; format: functional; details: Mus musculus
[4] = tested on: L1210; assay: Compound was studied in L1210 leukemia test system for the antitumor activity expressed as number of animals survived/Number of animals tested at dose of 25 mg/kg; 5/6; format: functional, Mus musculus
[5] = tested on: P388; assay: Compound was studied in P388 test system for the antitumor activity expressed as percent maximum life span of animals at dose of 50 mg/kg; format: functional; details: Mus musculus
[6] = tested on: P388; assay: Compound was studied in P388 test system for the antitumor activity expressed as number of animals survived/Number of animals tested at dose of 50 mg/kg; 6/6; format: functional, Mus musculus
[7] = tested on: L1210; assay: Compound was studied in L1210 leukemia test system for the antitumor activity expressed as number animals survived/Number of animals tested at dose of 25 mg/kg; 5/6; format: functional, Mus musculus
[8] = tested on: P388; assay: Compound was studied in P388 test system for the antitumor activity expressed as percent maximum life span of animals at dose of 37.5 mg/kg; format: functional; details: Mus musculus
[9] = tested on: P388; assay: Compound was studied in P388 test system for the antitumor activity expressed as number of animals survived/Number of animals tested at dose of 37.5 mg/kg; 6/6; format: functional, Mus musculus
[10] = tested on: P388; assay: Compound was studied in P388 test system for the antitumor activity expressed as percent maximum life span of animals at a dose of 50 mg/kg; format: functional; details: Mus musculus
[11] = tested on: P388; assay: Compound was studied in P388 test system for the antitumor activity expressed as number of animals survived/Number of animals tested at a dose of 50 mg/kg; 6/6; format: functional, Mus musculus
[12] = tested on: P388; assay: Compound was studied in P388 test system for the antitumor activity expressed as percent maximum life span of animals at a dose of 200 mg/kg; format: functional; details: Mus musculus
[13] = tested on: P388; assay: Compound was studied in P388 test system for the antitumor activity expressed as number of animals survived/Number of animals tested at a dose of 200 mg/kg; 5/6; format: functional, Mus musculus
[14] = tested on: P388; assay: Compound was studied in P388 test system for the antitumor activity expressed as number of animals survived/Number of animals tested at a dose of 200 mg/kg; 6/6; format: functional, Mus musculus
[15] = tested on: P388; assay: Compound was studied in P388 test system for the antitumor activity expressed as percent maximum life span of animals at a dose of 100 mg/kg; format: functional; details: Mus musculus
[16] = tested on: P388; assay: Compound was studied in P388 test system for the antitumor activity expressed as number of animals survived/Number of animals tested at a dose of 100 mg/kg; 5/6; format: functional, Mus musculus
[17] = tested on: P388; assay: Compound was studied in P388 test system for the antitumor activity expressed as number of animals survived/Number of animals tested at a dose of 100 mg/kg; 6/6; format: functional, Mus musculus
[18] = tested on: B16; assay: Compound was studied in B16 test system for the antitumor activity expressed as percent maximum life span of animals at dose of 200 mg/kg; format: functional; details: Mus musculus
[19] = tested on: B16; assay: Compound was studied in B16 test system for the antitumor activity expressed as number of animals survived/Number of animals tested at dose of 200 mg/kg; […]; format: functional, Mus musculus
[20] = tested on: L1210; assay: Compound was studied in L1210 leukemia test system for the antitumor activity expressed as percent maximum life span of animals at dose of 400 mg/kg; format: functional; details: Mus musculus
[21] = tested on: L1210; assay: Compound was studied in L1210 leukemia test system for the antitumor activity expressed as number animals survived/Number of animals tested at dose of 400 mg/kg; 6/6; format: functional, Mus musculus
[22] = tested on: Lewis lung carcinoma cell line; assay: Compound was studied in LL test system for the antitumor activity expressed as number of animals survived/Number of animals tested at dose of 12.5 mg/kg; 10/10; format: functional, Mus musculus
[23] = tested on: Lewis lung carcinoma cell line; assay: Compound was studied in LL test system for the antitumor activity expressed as percent maximum life span of animals at dose of 12.5 mg/kg; format: functional; details: Mus musculus
[24] = tested on: Mus musculus; assay: Compound was studied in CD8F test system for the antitumor activity expressed as percent maximum life span of animals at dose of 250 mg/kg; format: functional
[25] = tested on: Mus musculus; assay: Compound was studied in CD8F test system for the antitumor activity expressed as number of animals survived/Number of animals tested at dose of 250 mg/kg; 10/10; format: functional
[26] = tested on: P388; assay: Compound was studied in P388 test system for the antitumor activity expressed as percent maximum life span of animals; format: functional, Mus musculus
[27] = tested on: P388; assay: Compound was studied in P388 test system for the antitumor activity expressed as number of animals survived/Number of animals tested at 200 mg/kg; 6/6; format: functional, Mus musculus
[28] = tested on: L1210; assay: Compound was studied in L1210 leukemia test system for the antitumor activity expressed as percent maximum life span of animals at dose of 200 mg/kg; format: functional; details: Mus musculus
[29] = tested on: L1210; assay: Compound was studied in L1210 leukemia test system for the antitumor activity expressed as number animals survived/Number of animals tested at dose of 200 mg/kg; 10/10; format: functional, Mus musculus
[30] = tested on: Mus musculus; assay: Compound was studied in CD8F test system for the antitumor activity expressed as percent maximum life span of animals at dose of 25 mg/kg; format: functional
[31] = tested on: Mus musculus; assay: Compound was studied in CD8F test system for the antitumor activity expressed as number of animals survived/Number of animals tested at dose of 25 mg/kg; 10/10
[32] = tested on: L1210; assay: Compound was studied in L1210 leukemia test system for the antitumor activity expressed as percent maximum life span of animals at dose of 50 mg/kg; format: functional; details: Mus musculus
[33] = tested on: L1210; assay: Compound was studied in L1210 leukemia test system for the antitumor activity expressed as number animals survived/Number of animals tested at dose of 50 mg/kg; 6/6; format: functional, Mus musculus
[34] = tested on: P388; assay: Compound was studied in P388 test system for the antitumor activity expressed as percent maximum life span of animals at dose of 25 mg/kg; format: functional; details: Mus musculus
[35] = tested on: P388; assay: Compound was studied in P388 test system for the antitumor activity expressed as number of animals survived/Number of animals tested at dose of 25 mg/kg; 6/6; format: functional, Mus musculus
[36] = tested on: L1210; assay: Compound was studied in L1210 leukemia test system for the antitumor activity expressed as percent maximum life span of animals at dose of 22.5 mg/kg; format: functional; details: Mus musculus
[37] = tested on: L1210; assay: Compound was studied in L1210 leukemia test system for the antitumor activity expressed as number of animals survived/Number of animals tested at dose of 22.5 mg/kg; 6/6; format: functional, Mus musculus
[38] = tested on: P388; assay: Compound was studied in P388 test system for the antitumor activity expressed as percent maximum life span of animals at dose of 120 mg/kg; format: functional; details: Mus musculus
[39] = tested on: P388; assay: Compound was studied in P388 test system for the antitumor activity expressed as number of animals survived/Number of animals tested at dose of 120 mg/kg; 6/6; format: functional, Mus musculus
[40] = tested on: L1210; assay: Compound was studied in L1210 leukemia test system for the antitumor activity expressed as number animals survived/Number of animals tested at dose of 200 mg/kg; 6/6; format: functional, Mus musculus

O=S(=O)(OC1=CCCCCC1)C(F)(F)F
ILS at 400 mg/kg [1]: 15%
Ratio [2]: 5

CS(=O)(=O)O/C=C1\CCOC1=O
ILS at 25 mg/kg [3]: 6%
Ratio [4]: 5
ILS at 50 mg/kg [5]: 32%
Ratio [6]: 6

O=C1OCC/C1=C\OS(=O)(=O)C(F)(F)F
ILS at 25 mg/kg [3]: 6%
Ratio [7]: 5
ILS at 37.5 mg/kg [8]: 26%
Ratio [9]: 6

O=S(=O)(OC1=CCCCC1)C(F)(F)F
ILS at 50 mg/kg [10]: 14%
Ratio [11]: 6

O=S(=O)(OC=C1CCCCC1)C(F)(F)F
ILS at 200 mg/kg [12]: 12%
Ratio [13]: 5

CC(C)=CO[Si](C)(C)C
ILS at 200 mg/kg [12]: 14%
Ratio [14]: 6

C/C(=C\O[Si](C)(C)C)c1ccccc1
ILS at 100 mg/kg [15]: 8%
Ratio [16]: 5

O=S(=O)(O/C1=C/CCCCCC1)C(F)(F)F
ILS at 200 mg/kg [12]: 14%
ILS at 100 mg/kg [15]: 13%
Ratio [17]: 6
Ratio [13]: 5

C[Si](C)(C)O/C=C1\CCOC1=O
ILS at 200 mg/kg [18]: 6%
Ratio [19]: 10
ILS at 400 mg/kg [20]: 12%
Ratio [21]: 6
Ratio [22]: 10
ILS at 12.5 mg/kg [23]: 16%
ILS at 250 mg/kg [24]: 42%
Ratio [25]: 10
ILS [26]: 25%
Ratio [27]: 6

CCOC1=CC(=O)/C(=C/O[Si](C)(C)C)CC1
Ratio [6]: 6

C[Si](C)(C)O/C=C1\CCCCC1=O
ILS at 200 mg/kg [28]: 5%
Ratio [29]: 10
ILS at 25 mg/kg [30]: 21%
Ratio [6]: 6
Ratio [31]: 1

CC(C)=C(C)OS(=O)(=O)C(F)(F)F
ILS at 100 mg/kg [15]: 14%
Ratio [17]: 6

C[Si](C)(C)OC=C1CCCCC1
ILS at 100 mg/kg [15]: 22%
Ratio [17]: 6

CC1(C)CC(=O)C=C(OS(=O)(=O)C(F)(F)F)C1
ILS at 50 mg/kg [32]: 3%
Ratio [33]: 6
ILS at 25 mg/kg [34]: 12%
Ratio [35]: 6

CC(C)=COS(=O)(=O)C(F)(F)F
ILS at 50 mg/kg [10]: -1%
Ratio [11]: 6

CS(=O)(=O)O/C=C1\C(=O)O[C@@H]2CCCCC12 (stereo partly specified)
ILS at 22.5 mg/kg [36]: 11%
Ratio [37]: 6
ILS at 120 mg/kg [38]: 25%
Ratio [39]: 6

O=S(=O)(OC(=C(c1ccccc1)c1ccccc1)c1ccccc1)C(F)(F)F
ILS at 100 mg/kg [15]: 16%
Ratio [17]: 6

O=C1O[C@@H]2CCCCC2/C1=C/OS(=O)(=O)C(F)(F)F (stereo partly specified)
ILS at 200 mg/kg [28]: 17%
Ratio [40]: 6
